Reference: US20260021167A1, “COMPOSITIONS AND METHODS FOR TREATING OR PREVENTING NEURODEGENERATIVE DISEASES” (Delaware State University, priority 2022, published 2026)

Experiments:
[1] = system: nigrostriatal neurons; test: ROS in nigrostriatal neurons of PFF-injected mice; assay type: in vivo; details: PFF injection, mouse brains
[2] = target: T1, SENP-1 (Mus musculus, UniProt P59110); test: Western blot of SENP-1 in brain tissue extracts of PFF-injected mice; assay type: in vivo; details: vs PFF only
T1 construct: from tissue; host or cells: mouse brain: midbrain (MB) and striatum (STR) extracts
T1 sequence (P59110 1-640): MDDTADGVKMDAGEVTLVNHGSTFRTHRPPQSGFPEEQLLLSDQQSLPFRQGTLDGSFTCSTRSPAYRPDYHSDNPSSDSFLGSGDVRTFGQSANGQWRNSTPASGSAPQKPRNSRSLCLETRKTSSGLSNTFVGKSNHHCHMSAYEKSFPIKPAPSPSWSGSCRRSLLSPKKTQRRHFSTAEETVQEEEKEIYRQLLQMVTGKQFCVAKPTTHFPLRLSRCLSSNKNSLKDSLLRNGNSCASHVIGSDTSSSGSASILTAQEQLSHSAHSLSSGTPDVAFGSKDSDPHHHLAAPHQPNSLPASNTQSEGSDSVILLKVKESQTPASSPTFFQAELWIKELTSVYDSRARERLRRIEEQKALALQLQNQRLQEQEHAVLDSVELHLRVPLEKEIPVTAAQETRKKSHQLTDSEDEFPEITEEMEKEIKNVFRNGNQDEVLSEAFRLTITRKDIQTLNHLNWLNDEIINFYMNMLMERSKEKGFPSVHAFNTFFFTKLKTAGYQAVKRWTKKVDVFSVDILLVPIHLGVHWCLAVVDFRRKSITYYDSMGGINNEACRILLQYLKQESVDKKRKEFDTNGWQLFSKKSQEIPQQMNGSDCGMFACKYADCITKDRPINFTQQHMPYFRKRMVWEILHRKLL
Procedure: (§1) A mouse model of Parkinson's disease is C57BL/6 male or female mice (50% each) injected with 5 μg of mouse PFF at 12 months old, followed by a treatment below for 6-7 weeks: • 1) without PFF injection, followed by vehicle (control, n=7); • 2) PFF injection, followed by vehicle (PFF only: control, n=8); • 3) PFF injection, followed by daily 10 mg/kg Momordin gavage (n=7-8); • 4) PFF injection, followed by daily 50 mg/kg Momordin gavage (n=7-8).
(§2) Immunoblot Analyses. A total of three protein extractions were performed. In the first extraction, a gentle RIPA buffer containing the low concentration of detergent (25 mM Tris-HCL, 150 mM NaCl, 1% NP-40, 1% sodium deoxycholate and 0.1% SDS) was added with phosphatase inhibitors (100 μL for 10 mL) and 5 mM EDTA. The mixture was sonicated and centrifuged at 14,000 rpm for 10 min. The supernatant was collected for measuring the levels of phosphorylated α-syn, SENP-1 or SUMO-1 conjugated proteins for different groups. […] The primary antibodies pertaining to each protein analyzed were diluted at 1:1000 (p-Ser-129-α-synuclein, Cell signaling; SENP-1, SAB4501345, EMD) and incubated at 4° C. overnight. […] ImageJ was used to analyze specific bands on each blot and measured against the loading control (β-actin) for normalizing each band intensity.

[3] = system: PFF-injected mice; test: Behavioral tests overall in PFF-injected mice; assay type: in vivo, mouse; details: 10 or 50 mg/kg oral
Procedure: as §1
Behavioral tests were performed using the methods described in Ghosh et al. (Int J Mol Sci. 2022 Apr. 12; 23 (8): 4262) (FIG. 11A).

[4] = system: N27 dopaminergic cell line; test: In vitro cell death induced by MPP+ or PFF; assay type: cell-based, rat; details: MPP+ or PFF-mediated toxic conditions
[5] = system: phosphorylated α-synuclein; test: Western blot of phosphorylated α-synuclein in brain tissue extracts of PFF-injected mice; assay type: in vivo, mouse; details: both doses, vs PFF only
Procedure: as §1, §2

[6] = Passage of the BBB in mice; assay type: in vivo, mouse; details: 10 or 50 mg/kg
[7] = target: T2, SENP-1 on α-synuclein (Mus musculus, UniProt P59110); test: Western blot of SENP-1 on α-synuclein in α-synuclein IP tissue samples; assay type: in vivo; details: PFF-injected mice, vs PFF only
T2 construct: from tissue; host or cells: mouse brain: midbrain and striatum, α-synuclein immunoprecipitates
T2 sequence (P59110 1-640): T1 sequence (P59110 1-640)
Procedure: A) In Western blots, Momordin reversed the toxicity from PFF injection in reducing phospho-α-synuclein and SENP-1 on α-synuclein in the MB and STR. […] A pathological marker, phosphorylated α-synuclein was increased by PFF injection, which was reversed by Momordin treatment in the MB (F) and the STR (G).
as §1

Structure (SMILES): CC1(C)CC[C@]2(C(=O)O)CC[C@]3(C)C(=CC[C@@H]4[C@@]5(C)CC[C@H](O[C@@H]6O[C@H](C(=O)O)[C@@H](O)[C@H](O[C@@H]7OC[C@@H](O)[C@H](O)[C@H]7O)[C@H]6O)C(C)(C)[C@@H]5CC[C@]43C)[C@@H]2C1 [Momordin lc]
- level of ROS in nigrostriatal neurons [1]: alleviated the level of ROS
- PFF-induced SENP-1 in the MB (Western blot, tissue extracts) ([2]; midbrain): reduced
- PFF-induced SENP-1 in the STR (Western blot, tissue extracts) ([2]; striatum): reduced
- behavioral / motor deficits derived from PFF injection [3]: improved the behavioral deficits
- behavioral / motor deficits derived from PFF injection ([3]; listed as Momordin): alleviates severe motor deficits
- protection against in vitro cell death [4]: protect against in vitro cell death
- phosphorylated α-synuclein in the MB (Western blot, tissue extracts) ([5]; midbrain): reversed
- phosphorylated α-synuclein in the STR (Western blot, tissue extracts) ([5]; striatum): reversed
- passage of the BBB [6]: effectively pass the BBB
- PFF-induced SENP-1 on α-synuclein in the MB (α-synuclein IP) ([7]; midbrain): reduced
- PFF-induced SENP-1 on α-synuclein in the STR (α-synuclein IP) ([7]; striatum): reduced
